The values below come from patent publication US11795162B2, “Modulators of the estrogen-related receptor” (Saint Louis University, priority 2017, dated 2023).

For the assay, the target named is T1, ERR gamma protein (Homo sapiens, UniProt P62508).
T1 sequence (P62508 1-458): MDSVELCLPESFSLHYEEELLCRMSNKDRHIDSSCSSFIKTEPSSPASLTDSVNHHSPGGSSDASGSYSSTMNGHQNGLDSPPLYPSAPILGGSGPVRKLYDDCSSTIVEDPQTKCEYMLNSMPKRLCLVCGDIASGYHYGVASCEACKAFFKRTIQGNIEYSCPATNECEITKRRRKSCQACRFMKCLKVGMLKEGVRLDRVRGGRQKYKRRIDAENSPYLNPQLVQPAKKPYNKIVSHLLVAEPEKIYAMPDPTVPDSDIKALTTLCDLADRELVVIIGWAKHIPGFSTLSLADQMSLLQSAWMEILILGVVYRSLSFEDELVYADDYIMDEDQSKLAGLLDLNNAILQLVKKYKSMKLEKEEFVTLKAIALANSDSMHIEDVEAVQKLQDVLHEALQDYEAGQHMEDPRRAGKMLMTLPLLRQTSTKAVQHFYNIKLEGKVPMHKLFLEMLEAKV
In words: Protein thermal shift assay. The following applies: compound at 20 μM; ERR gamma protein 0.1 mg/mL, SYPRO-Orange; read-out: T.S. (thermal shift) range. It is filed as binding. On the procedure: Six replicate reactions were set up and run in Applied Biosystems Quantstudio 7 Real-Time PCR system. Data were collected at a ramp rate of 0.05° C./s from 24° C. through 95° C. and analyzed using Protein Thermal Shift Software 1.3.

For the compound `O=C(Nc1cccc(F)c1)c1ncc(-c2cccc(O)c2)s1` [Compound 21], the ΔTm at 20 µM is over 4 °C. Consider `O=C(Nc1ccc(O)cc1)c1ccc(-c2ccc3ccccc3c2)s1` [Compound 121], for which the ΔTm at 20 µM fell in the range of 0 to 2 °C. On to `CC(C)c1ccc(NC(=O)c2cc(-c3cccc(O)c3)[nH]n2)cc1` [Compound 130], for which the ΔTm at 20 µM is 0 to 2 °C. `O=C(Nc1ccncc1)c1ccc(-c2cccc(F)c2)s1` [Compound 90]: the ΔTm at 20 µM is 2 to 4 °C.

With `CC(C)c1cccc(-c2ccc(C(=O)Nc3ccc(Cl)cc3)s2)c1` [Compound 117], the ΔTm at 20 µM lay in the range of 0 to 2 °C. The same measure for `O=C(Nc1ccc2ncsc2c1)c1ccc(-c2ccc(O)cc2)o1` [Compound 41]: 2 to 4 °C. For `O=C(Nc1cccc(F)c1)c1ccc(-c2ccc(O)c(C(F)(F)F)c2)s1` [Compound 61], the ΔTm at 20 µM is over 4 °C.

Turning to `N#Cc1ccc(-c2ccc(C(=O)Nc3ccc(O)cc3)s2)cc1` [Compound 102], the ΔTm at 20 µM fell in the range of 2 to 4 °C. With `O=C(Nc1ccccc1F)c1ccc(-c2cccc(O)c2)s1` [Compound 63], the ΔTm at 20 µM was 0 to 2 °C. In the case of `O=C(Nc1ccc(Cl)cc1)c1ccc(-c2cccc(C(F)(F)F)c2)s1` [Compound 107], the ΔTm at 20 µM was in the range of 0 to 2 °C.

Take `CCOc1ccc(NC(=O)c2ccc(-c3cccc(O)c3)s2)cc1` [Compound 52]: the ΔTm at 20 µM was in the range of 2 to 4 °C.

With `O=C(Nc1ccc(O)cc1)c1cc(-c2ccc(O)cc2)[nH]n1` [Compound 131], the ΔTm at 20 µM was 2 to 4 °C. Consider `COc1ccc(NC(=O)c2ccc(-c3ccc(O)cc3)s2)cc1` [Compound 29], for which the ΔTm at 20 µM was in the range of 0 to 2 °C. Regarding `Cc1ccc(-c2ccc(C(=O)Nc3ccncc3)s2)cc1C` [Compound 82], the ΔTm at 20 µM was in the range of 0 to 2 °C.

For `O=C(NCc1ccccc1)c1ccc(-c2ccc(Cl)cc2)s1` [Compound 2, N-benzyl-5-(4-chlorophenyl)thiophene-2-carboxamide], the ΔTm at 20 µM was in the range of 2 to 4 °C. Turning to `O=C(Nc1ccc2ncsc2c1)c1ccc(-c2cccc(O)c2)o1` [Compound 42], the ΔTm at 20 µM lay within 0 to 2 °C. As for `O=C(Nc1cccc(F)c1)c1ccc(-c2ccc3[nH]ccc3c2)s1` [Compound 66], the ΔTm at 20 µM was in the range of 2 to 4 °C. As for `O=C(Nc1ccc(O)cc1)c1coc(-c2ccsc2)n1` [Compound 10, N-(4-hydroxyphenyl)-2-(thiophen-3-yl)oxazole-4-carboxamide], the ΔTm at 20 µM is 0 to 2 °C. The same measure for `CC(C)c1cccc(NC(=O)c2ccc(-c3cccc(O)c3)s2)c1` [Compound 151]: 0 to 2 °C.

For the compound `N#Cc1ccc(NC(=O)c2ccc(-c3cccc(O)c3)s2)cc1` [Compound 22], the ΔTm at 20 µM was 0 to 2 °C. For `Clc1ccc(-c2ccc(CNCc3ccccc3)s2)cc1` [Compound 3, N-benzyl-1-(5-(4-chlorophenyl)thiophen-2-yl)methanamine], the ΔTm at 20 µM fell in the range of 0 to 2 °C. In the case of `CC(C)(C)c1ccc(NC(=O)c2cc(-c3ccc(O)cc3)[nH]n2)cc1` [Compound 129] it was 0 to 2 °C; in that of `CC(C)c1ccc(-c2ccc(C(=O)Nc3ccccn3)s2)cc1` [Compound 137], 0 to 2 °C; in that of `Cc1ccc(NC(=O)c2cc(-c3ccc(O)cc3)[nH]n2)cc1` [Compound 127], 2 to 4 °C. The same measure for `CC(C)c1cccc(-c2ccc(C(=O)Nc3ccc(O)cc3)s2)c1` [Compound 6, N-(4-hydroxyphenyl)-5-(3-isopropylphenyl)thiophene-2-carboxamide]: 0 to 2 °C; for `CC(C)c1cccc(-c2ccc(C(=O)Nc3ccncc3)s2)c1` [Compound 119]: 0 to 2 °C. Regarding `N#Cc1ccc(-c2ccc(C(=O)Nc3ccncc3)s2)cc1` [Compound 101], the ΔTm at 20 µM was in the range of 0 to 2 °C. As for `O=C(Nc1cccc(B(O)O)c1)c1ccc(-c2ccccc2F)s1` [Compound 44], the ΔTm at 20 µM fell in the range of 2 to 4 °C. For the compound `O=C(Nc1ccc(O)cc1)c1ccc(-c2cccc(C(F)(F)F)c2)s1` [Compound 110], the ΔTm at 20 µM lay within 2 to 4 °C. The same measure for `Cc1ccc(-c2ccc(C(=O)Nc3ccc(O)cc3)s2)cc1C` [Compound 83]: 0 to 2 °C.
